Converted amounts (≈) assume the structure as drawn.
Experiments:
Format in all cases: functional
Staphylococcus aureus = experiment: Antibacterial activity against Staphylococcus aureus
Cryptococcus neoformans = experiment: Antifungal activity against Cryptococcus neoformans
Aspergillus fumigatus = experiment: Antifungal activity against Aspergillus fumigatus

MIC (Staphylococcus aureus): 3.2 µg/mL (≈ 9.93 µM)
MIC (Cryptococcus neoformans): 50 µg/mL (≈ 155 µM)
MIC (Aspergillus fumigatus): 50 µg/mL (≈ 155 µM)
Structure (SMILES): CC(C)=CCc1cc(-c2coc3cc(O)ccc3c2=O)ccc1O [NEOBAVAISOFLAVONE]

Source: ChEMBL document CHEMBL1148050, “Sigmoidins J and K, two new prenylated isoflavonoids from Erythrina sigmoidea” (1994)
